Here are results for 5 compounds from patent US4707475A, “Agent for lowering serum prolactin levels” (priority 1985, dated 1987).

The test system of data set [1] is dopamine autoreceptors (DA-autoreceptors). The note with it: cited from earlier work; for selectivity as DA-autoreceptor agonist: compared with B-HT 920, literature.
A further data set deals with DA-receptors. The note with it: cited from earlier work; for action as DA agonist: Gudelsky et al.
Another data set concerns prolactin. Particulars: Gudelsky 1983; cited from earlier work.
In a further data set the test system is prolactin level. Description: Prolactin level in blood of 6 healthy male subjects after 150 μg B-HT 920 (PROLRIA-100 radioimmunological method). In kind it is in vivo, healthy male subjects (human). On the set-up: unit not given here. The protocol:
The compound B-HT 920 is tested for its effect on PRL-reduction as follows. The tests are carried out with 6 healthy male subjects ranging in age from 24 to 34, each subject being given 150 μg of B-HT 920. Blood samples are taken from each subject at intervals of 0, 1, 2, 3 and 5 hours. The prolactin level in the sample is determined by the known PROLRIA-100 radioimmunological method of the National Insitute of the Radioelements, 6220 Fleurs, Belgium. The following table contains the results found for each subject at the 1 hour intervals shown.

Data set [2] has as its system endogenous dopamine synthesis in the brain. Particulars: in vivo, Anden et al. 1983; cited from earlier work.
The test system of a further data set is prolactin (PRL). Put plainly: Lowering of blood and serum levels of prolactin (general statement). The note with it: in vivo.
Data set [3] is described as follows: Tolerability (general statement). The note with it: in vivo.

In the case of `CCCN1CCCC(c2cccc(O)c2)C1` (stereo not shown) [3-PPP], in data set [1], the “selectivity as DA-autoreceptor agonist” value is on record as “not selectively active as DA-autoreceptor agonists”. In addition, the “action as DA agonist” value with DA-receptors is “act preferentially as DA agonists”. The prolactin inhibiting activity result with prolactin is on record as “prolactin inhibiting activity”.

For `CN1CCc2cccc3c2[C@H]1Cc1ccc(O)c(O)c1-3` [apomorphine], the “selectivity as DA-autoreceptor agonist” value in data set [1] was “not selectively active as DA-autoreceptor agonists”. For the same compound, the “action on DA-receptors and DA-autoreceptors” value in the data set on DA-receptors (well known) was “acts both on DA-receptors and also on DA-autoreceptors”.

Take `CN(C)C1CCc2cc(O)c(O)cc2C1` (stereo not shown) [TL-99]: the “selectivity as DA-autoreceptor agonist” value in data set [1] is on record as “not selectively active as DA-autoreceptor agonists”. Further, the “action as DA agonist” value in the data set on DA-receptors is “act preferentially as DA agonists”. Moreover, the postsynaptic activity result in the data set with DA-receptors (effect on the DA-receptors, Pastor et al. 1983) is “possibly has a postsynaptic activity”. Moreover, the prolactin inhibiting activity entry with prolactin is “prolactin inhibiting activity”.

As to `C=CCN1CCc2nc(N)sc2CC1.Cl.Cl` [B-HT 920, 6-allyl-2-amino-5,6,7,8-tetrahydro-4H-thiazolo-[4,5-d]azepine dihydrochloride], the “effect on dopamine autoreceptors” value in data set [1] (Anden et al. 1982) is “selective agonistic effect on dopamine autoreceptors”. Moreover, the prolactin level is given as 2.56 in the data set with prolactin level (subject 1, 1 hour); 0.52 in the data set with prolactin level (subject 1, 2 hours); 2.52 with prolactin level (subject 1, 3 hours); 3.26 in the data set with prolactin level (subject 1, 5 hours); 3.33 in the data set on prolactin level (subject 1, time 0); 2.85 in the data set with prolactin level (subject 2, 1 hour). Moreover, the prolactin level in the data set on prolactin level (subject 2, 2 hours) turned out to be 0.69; with prolactin level (subject 2, 3 hours), 0.52; in the data set on prolactin level (subject 2, 5 hours), 2.25; in the data set on prolactin level (subject 2, time 0), 3.86; in the data set on prolactin level (subject 3, 1 hour), 4.15; in the data set on prolactin level (subject 3, 2 hours), 4.92. For the same compound, the prolactin level in the data set on prolactin level (subject 3, 5 hours) is on record as 1.85; in the data set on prolactin level (subject 3, time 0), 4.22; in the data set with prolactin level (subject 4, 1 hour), 4.52; with prolactin level (subject 4, 2 hours) it was 7.89; in the data set with prolactin level (subject 4, 5 hours), 4.11; with prolactin level (subject 4, time 0), 5.04. Besides, the prolactin level in the data set with prolactin level (subject 5, 1 hour) was found to be 7.19; with prolactin level (subject 5, 2 hours), 1.37; in the data set on prolactin level (subject 5, 3 hours) it was 3.43; with prolactin level (subject 5, 5 hours) it was 2.89; in the data set on prolactin level (subject 5, time 0), 5.00; in the data set with prolactin level (subject 6, 1 hour) it was 7.59. Also, the prolactin level came to 1.57 in the data set on prolactin level (subject 6, 2 hours); 4.33 in the data set with prolactin level (subject 6, 5 hours); 6.59 in the data set with prolactin level (subject 6, time 0). For the same compound, the “effect on endogenous dopamine synthesis” value in data set [2] is given as “inhibits endogenous dopamine synthesis in the brain”.

As to `C=CCN1CCc2nc(N)sc2CC1` [compound A, 6-allyl-2-amino-5,6,7,8-tetrahydro-4H-thiazolo-[4,5-d]azepine], the “effect on blood and serum levels of prolactin (PRL)” value in the data set on prolactin (PRL) was “lower the blood and serum levels of prolactin (PRL)”. Besides, in data set [3], the tolerability result is “well tolerated”.
